The values that follow are results of earlier work, collected in patent publication US20070098710A1, “Anxiolytic composition comprising essential oil derived from plants as active ingredients, anxiolytic comprising thereof, and a producing method thereof” (NATURE TECHNOLOGY, INC., priority 2004, published 2007).

In one series the test system is male ICR mice. The conditions noted are these: mouse, administered previously.

Regarding `CC1CCC(C(C)C)C(O)C1` (stereo not drawn) [l-menthol, 5-methyl 2-(1-methylethyl)cyclohexanol], where the note is “ethanol”, the solubility in ethanol entry was “soluble in ethanol”. The solubility in water result (water) is listed as “insoluble in water”.
Regarding `CN1C(=O)CN=C(c2ccccc2)c2cc(Cl)ccc21` [diazepam], in the series with male ICR mice, the “change of the emotionality (inhibition of looking into hole) by restraint stress” value is “improved”.
